From ChEMBL document CHEMBL1201862, “PubChem BioAssay data set” (2004)
Calls of active or inactive are those of the source.

Tests used:
[1] = target: T1, Dual specificity protein phosphatase 3 (Homo sapiens, UniProt P51452); experiment: SAR VHR1 absorbance Assay for In Vitro dose response studies. [Related pubchem assays (depositor defined):AID1654, AID1661, AID1878, AID1992, AID2004]
[2] = target: T1, Dual specificity protein phosphatase 3; experiment: SAR VHR1 Fluorescent Assay for In Vitro dose response studies. [Related pubchem assays (depositor defined):AID1654, AID1661, AID1878, AID1992, AID2004, AID2070, AID2085]; format: functional
[3] = target: T2, Tyrosine-protein phosphatase non-receptor type 7 (Homo sapiens, UniProt P35236); experiment: redox-dependent HePTP inhibition, mechanism study, biochemical, fluorescence (AID 2068); format: functional
T2 sequence (P35236 whole entry): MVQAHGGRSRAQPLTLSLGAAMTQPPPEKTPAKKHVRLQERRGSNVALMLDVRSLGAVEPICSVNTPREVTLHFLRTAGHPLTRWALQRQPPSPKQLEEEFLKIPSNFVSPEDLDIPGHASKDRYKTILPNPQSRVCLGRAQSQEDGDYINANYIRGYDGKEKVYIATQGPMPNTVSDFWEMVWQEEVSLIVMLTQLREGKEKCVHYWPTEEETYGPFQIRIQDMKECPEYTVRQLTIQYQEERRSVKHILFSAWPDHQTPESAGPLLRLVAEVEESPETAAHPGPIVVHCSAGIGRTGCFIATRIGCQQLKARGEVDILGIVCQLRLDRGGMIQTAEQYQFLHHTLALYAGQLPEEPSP

[4] = target: T3, Dual specificity protein phosphatase 6 (Rattus norvegicus, UniProt Q64346); experiment: SAR analysis of inhibitors of MKP-3 - Set 2. [Related pubchem assays (depositor defined):AID1055, AID1661, AID425, AID553, AID566]; format: functional
T3 sequence (Q64346 whole entry): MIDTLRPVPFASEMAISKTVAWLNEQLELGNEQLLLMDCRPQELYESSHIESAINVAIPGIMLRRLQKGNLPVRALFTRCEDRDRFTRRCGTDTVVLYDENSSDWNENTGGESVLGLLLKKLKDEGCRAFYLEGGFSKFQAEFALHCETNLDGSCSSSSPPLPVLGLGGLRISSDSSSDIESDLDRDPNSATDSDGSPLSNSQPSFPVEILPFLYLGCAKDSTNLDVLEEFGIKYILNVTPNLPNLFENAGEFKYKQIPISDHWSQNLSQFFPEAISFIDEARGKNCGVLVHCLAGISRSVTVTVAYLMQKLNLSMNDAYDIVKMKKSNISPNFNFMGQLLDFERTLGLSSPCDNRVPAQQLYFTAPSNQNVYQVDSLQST

[5] = target: T2, Tyrosine-protein phosphatase non-receptor type 7; experiment: SAR analysis of chemical inhibitors of HePTP using a Fluorescent assay - Set 2. [Related pubchem assays (depositor defined):AID1059, AID1077, AID1661, AID2085, AID521]; format: functional
[6] = target: T1, Dual specificity protein phosphatase 3; experiment: SAR VHR1 Fluorescent Assay for In Vitro dose response studies Set 2. [Related pubchem assays (depositor defined):AID1654, AID1661, AID1878]; format: functional
[7] = target: T3, Dual specificity protein phosphatase 6; format: functional
[8] = target: Eukaryotic translation initiation factor 4H (Homo sapiens, UniProt Q15056); experiment: eIF4H inhibition in translation initiation, SAR follow-up (AID 435011); format: functional
[9] = target: Polyadenylate-binding protein 1 (Homo sapiens, UniProt P11940); experiment: PABP inhibition in translation initiation, SAR follow-up (AID 435018); format: functional
[10] = target: Peroxisome proliferator-activated receptor gamma/Nuclear receptor coactivator 1 (Homo sapiens, UniProt P37231); experiment: (§1) TR-FRET dose response biochemical High Throughput Screening assay for agonists of the steroid receptor coactivator 1 (SRC-1) recruitment by the peroxisome proliferator-activated receptor gamma (PPAR gamma): non-selective agonists. [Related pubchem assays (depositor defined):AID1300, AID1808, AID504735, AID631]; format: protein assay
[11] = target: Peroxisome proliferator-activated receptor gamma/Nuclear receptor coactivator 3 (Homo sapiens, UniProt P37231); experiment: as §1, with “3 (SRC-3)” for “1 (SRC-1)”, “assays: 1301 (Confirmation screen.), 1048 (Primary screen.)]” for “assays (depositor defined):AID1300, AID1808, AID504735, AID631]”; format: functional
Large T antigen = Large T antigen (Simian virus 40, UniProt P03070); format: functional, Betapolyomavirus macacae;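 note: Confirmatory-stage PubChem screen for compounds that inhibit SV40 T antigen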
[12] = target: Peroxisome proliferator-activated receptor gamma/Nuclear receptor coactivator 2 (Homo sapiens, UniProt P37231); experiment: TR-FRET dose response biochemical High Throughput Screening assay for agonists of the steroid receptor coactivator 2 (SRC-2) recruitment by the peroxisome proliferator-activated receptor gamma (PPAR gamma): non-selective agonists. [Related pubchem assays: 1297, 1032 ]; format: functional
[13] = inhibition of K1F phage lysis, E. coli UTI89, bacterial capsule biogenesis inhibitors, alamar blue (AID 488966); format: functional
[14] = target: T4, Replicative DNA helicase DnaB (Mycobacterium tuberculosis, UniProt P9WMR3); experiment: DnaB intein splicing inhibitors, dose response, biochemical, cell-free fluorescence (AID 449749); format: functional
T4 sequence (P9WMR3 whole entry): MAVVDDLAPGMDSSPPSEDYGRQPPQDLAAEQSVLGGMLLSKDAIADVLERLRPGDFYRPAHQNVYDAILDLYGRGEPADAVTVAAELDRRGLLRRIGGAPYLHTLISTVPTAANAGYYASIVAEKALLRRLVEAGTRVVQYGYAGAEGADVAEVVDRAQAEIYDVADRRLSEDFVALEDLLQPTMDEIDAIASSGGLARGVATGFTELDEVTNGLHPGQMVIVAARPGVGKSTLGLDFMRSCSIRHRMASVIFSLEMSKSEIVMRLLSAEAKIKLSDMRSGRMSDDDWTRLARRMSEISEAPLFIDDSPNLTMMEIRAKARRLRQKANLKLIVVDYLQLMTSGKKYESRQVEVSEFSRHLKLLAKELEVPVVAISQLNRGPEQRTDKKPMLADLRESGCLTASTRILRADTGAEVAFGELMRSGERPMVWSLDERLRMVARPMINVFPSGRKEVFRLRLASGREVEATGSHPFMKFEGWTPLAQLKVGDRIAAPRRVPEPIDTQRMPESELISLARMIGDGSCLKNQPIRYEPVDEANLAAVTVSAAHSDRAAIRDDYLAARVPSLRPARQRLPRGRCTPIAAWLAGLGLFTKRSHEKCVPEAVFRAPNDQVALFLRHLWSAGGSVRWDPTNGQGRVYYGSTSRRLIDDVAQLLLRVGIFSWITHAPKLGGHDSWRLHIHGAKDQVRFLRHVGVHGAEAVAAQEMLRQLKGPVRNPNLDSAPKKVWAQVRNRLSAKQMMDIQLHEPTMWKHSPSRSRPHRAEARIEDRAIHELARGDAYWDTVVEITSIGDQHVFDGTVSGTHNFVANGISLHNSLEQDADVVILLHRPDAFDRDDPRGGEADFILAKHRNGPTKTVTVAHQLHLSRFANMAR

[15] = target: T5, Endoribonuclease toxin MazF (Escherichia coli K-12, UniProt P0AE70); experiment: MazF toxin RNase activators, dose response, biochemical, fluorescence, single-stranded RNA substrate, uHTS hits (AID 588481); format: functional
T5 sequence (P0AE70 whole entry): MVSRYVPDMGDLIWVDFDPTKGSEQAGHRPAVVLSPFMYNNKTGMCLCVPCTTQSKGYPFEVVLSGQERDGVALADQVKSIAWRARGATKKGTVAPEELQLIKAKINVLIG

Vero = Vero cell cytotoxicity, cytotoxicity control for flavivirus capping enzyme inhibitors (AID 588742); format: functional; conditions: Chlorocebus sabaeus
Protein RecA = target: T6, Protein RecA (Mycobacterium tuberculosis, UniProt P9WHJ3); experiment: Fluorescence Cell-Free Homogeneous Dose Retest to Identify Inhibitors of RecA-Intein Splicing Activity. [Related pubchem assays (depositor defined):AID2097, AID2223, AID489010, AID492950]; format: functional
T6 sequence (P9WHJ3 whole entry): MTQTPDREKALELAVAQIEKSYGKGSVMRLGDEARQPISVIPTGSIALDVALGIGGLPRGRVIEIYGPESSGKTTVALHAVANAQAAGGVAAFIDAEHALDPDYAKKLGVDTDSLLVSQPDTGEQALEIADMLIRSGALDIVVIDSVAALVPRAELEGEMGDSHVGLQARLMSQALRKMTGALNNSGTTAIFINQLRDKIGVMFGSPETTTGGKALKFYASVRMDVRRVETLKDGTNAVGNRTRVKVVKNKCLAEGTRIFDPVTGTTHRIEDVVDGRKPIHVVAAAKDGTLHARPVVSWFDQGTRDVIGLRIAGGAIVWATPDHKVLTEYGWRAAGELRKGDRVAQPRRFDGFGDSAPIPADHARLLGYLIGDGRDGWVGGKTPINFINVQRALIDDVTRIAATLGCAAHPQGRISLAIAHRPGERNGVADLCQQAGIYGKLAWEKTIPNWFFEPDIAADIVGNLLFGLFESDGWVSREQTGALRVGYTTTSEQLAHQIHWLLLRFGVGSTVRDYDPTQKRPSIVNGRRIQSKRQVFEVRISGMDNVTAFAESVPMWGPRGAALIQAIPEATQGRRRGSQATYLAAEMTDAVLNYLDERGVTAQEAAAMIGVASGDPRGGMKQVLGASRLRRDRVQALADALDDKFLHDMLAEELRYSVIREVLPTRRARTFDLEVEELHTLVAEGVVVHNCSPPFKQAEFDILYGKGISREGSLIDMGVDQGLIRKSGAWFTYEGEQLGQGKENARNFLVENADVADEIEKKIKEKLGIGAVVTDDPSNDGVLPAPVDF

[16] = target: T5, Endoribonuclease toxin MazF; experiment: fluorescent RNA oligo signal without MazF, dose response, counter-screen for MazEF activator project, biochemical, fluorescence, single-stranded RNase substrate (AID 588502); format: functional
BJ [17] = experiment: cytotoxicity toward BJ-TERT fibroblasts, dose response, cell-based, RAS-independent, luminescence (AID 1933); format: functional; conditions: Homo sapiens
BJ [18] = experiment: cells; format: functional, cell-based; conditions: Homo sapiens
[19] = target: T7, Mannose-6-phosphate isomerase (Homo sapiens, UniProt P34949); experiment: inhibitors of human PMI, primary screen, biochemical, fluorescence intensity, coupled assay (AID 1209)
T7 sequence (P34949 whole entry): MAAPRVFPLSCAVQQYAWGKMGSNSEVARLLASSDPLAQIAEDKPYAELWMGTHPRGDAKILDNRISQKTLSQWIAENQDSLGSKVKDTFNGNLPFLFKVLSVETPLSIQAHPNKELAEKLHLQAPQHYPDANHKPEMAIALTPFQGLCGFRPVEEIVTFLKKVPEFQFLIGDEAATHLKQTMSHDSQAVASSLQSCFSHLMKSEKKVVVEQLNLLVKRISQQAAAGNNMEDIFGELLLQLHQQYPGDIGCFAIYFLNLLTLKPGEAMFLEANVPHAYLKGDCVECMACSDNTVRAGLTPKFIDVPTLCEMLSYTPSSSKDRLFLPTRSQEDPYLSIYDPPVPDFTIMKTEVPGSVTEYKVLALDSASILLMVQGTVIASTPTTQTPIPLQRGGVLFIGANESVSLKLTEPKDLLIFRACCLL

[20] = target: Bifunctional protein GlmU (Mycobacterium tuberculosis, UniProt P9WMN3); experiment: Inhibitors of Mycobacterial Glucosamine-1-phosphate acetyl transferase (GlmU). Secondary screen.; set-up: species or system Mycobacterium tuberculosis H37Rv
J774.A1 = experiment: Confirmation of image-based Screening Assay for Inhibitors of Phagocytosis. [Related pubchem assays (depositor defined):AID1029, AID1643]; format: functional, cell-based; conditions: Mus musculus
BJ [21] = experiment: cytotoxicity toward BJ-TERT-LT-ST fibroblasts, dose response, cell-based, RAS-independent, luminescence (AID 1935); format: functional; conditions: Homo sapiens;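 note: BJ fibroblasts immortalized with TERT plus LT and ST oncogenes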
[22] = cytotoxicity toward DRD oncogenic fibroblasts, dose response, cell-based, non-viral oncogenic, luminescence (AID 1934); format: functional; conditions: Homo sapiens
[23] = target: T7, Mannose-6-phosphate isomerase; experiment: human PMI inhibitors, high substrate, primary screen, biochemical, fluorescence intensity, high mannose 6-phosphate (AID 1220)
X-box-binding protein 1 = X-box-binding protein 1 (Homo sapiens, UniProt P17861); format: functional, Cricetulus griseus;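 note: confirmatory dose-response counter-screen serving a CHOP assay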
[24] = target: Heat shock protein HSP 90-alpha (Homo sapiens, UniProt P07900); format: functional, organism-based
BJ [25] = experiment: cytotoxicity toward Ras-transformed BJeLR fibroblasts, dose response, cell-based, alamar blue fluorescence, cherrypicked samples (AID 2631); format: functional; conditions: Homo sapiens;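 note: confirmatory dose-response assay in RAS-dependent BJ fibroblasts engineered with TERT, LT and ST, with cytotoxicity read by fluorescence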
[26] = Fluorescence-based cell-based high throughput dose response assay for inhibitors of the interaction of nucleotide-binding oligomerization domain containing 2 (NOD2) and the receptor-interacting serine-threonine kinase 2 (RIPK2).; format: functional; conditions: Homo sapiens

T1 sequence (P51452 whole entry): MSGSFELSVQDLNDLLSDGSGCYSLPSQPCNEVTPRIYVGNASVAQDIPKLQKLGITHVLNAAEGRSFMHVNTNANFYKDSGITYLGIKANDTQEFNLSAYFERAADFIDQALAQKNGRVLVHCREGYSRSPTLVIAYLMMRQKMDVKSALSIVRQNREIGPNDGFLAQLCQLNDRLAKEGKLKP
Polyadenylate-binding protein 1, sequence (P11940 whole entry): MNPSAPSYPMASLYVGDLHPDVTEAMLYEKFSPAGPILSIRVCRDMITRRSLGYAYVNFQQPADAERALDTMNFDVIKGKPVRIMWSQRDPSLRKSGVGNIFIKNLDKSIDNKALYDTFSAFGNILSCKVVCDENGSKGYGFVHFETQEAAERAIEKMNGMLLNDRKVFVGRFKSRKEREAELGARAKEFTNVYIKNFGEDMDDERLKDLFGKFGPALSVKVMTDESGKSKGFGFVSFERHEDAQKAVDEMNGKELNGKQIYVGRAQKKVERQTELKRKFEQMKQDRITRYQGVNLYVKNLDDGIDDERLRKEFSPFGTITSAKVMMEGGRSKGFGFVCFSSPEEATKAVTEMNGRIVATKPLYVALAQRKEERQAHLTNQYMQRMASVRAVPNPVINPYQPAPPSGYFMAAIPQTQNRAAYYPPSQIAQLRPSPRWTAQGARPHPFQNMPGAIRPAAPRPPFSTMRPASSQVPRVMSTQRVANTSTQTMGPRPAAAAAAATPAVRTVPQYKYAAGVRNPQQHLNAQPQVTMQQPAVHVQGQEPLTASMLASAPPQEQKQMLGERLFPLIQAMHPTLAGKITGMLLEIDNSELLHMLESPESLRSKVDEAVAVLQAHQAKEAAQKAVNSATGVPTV
X-box-binding protein 1, sequence (P17861 whole entry): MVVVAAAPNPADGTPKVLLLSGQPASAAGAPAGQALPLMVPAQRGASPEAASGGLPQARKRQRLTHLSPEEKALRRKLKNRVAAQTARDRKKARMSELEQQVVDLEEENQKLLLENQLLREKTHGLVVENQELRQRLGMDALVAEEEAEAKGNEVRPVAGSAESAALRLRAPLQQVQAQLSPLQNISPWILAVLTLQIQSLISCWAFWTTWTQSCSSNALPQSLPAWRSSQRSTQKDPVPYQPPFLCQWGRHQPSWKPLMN
Large T antigen, sequence (P03070 whole entry): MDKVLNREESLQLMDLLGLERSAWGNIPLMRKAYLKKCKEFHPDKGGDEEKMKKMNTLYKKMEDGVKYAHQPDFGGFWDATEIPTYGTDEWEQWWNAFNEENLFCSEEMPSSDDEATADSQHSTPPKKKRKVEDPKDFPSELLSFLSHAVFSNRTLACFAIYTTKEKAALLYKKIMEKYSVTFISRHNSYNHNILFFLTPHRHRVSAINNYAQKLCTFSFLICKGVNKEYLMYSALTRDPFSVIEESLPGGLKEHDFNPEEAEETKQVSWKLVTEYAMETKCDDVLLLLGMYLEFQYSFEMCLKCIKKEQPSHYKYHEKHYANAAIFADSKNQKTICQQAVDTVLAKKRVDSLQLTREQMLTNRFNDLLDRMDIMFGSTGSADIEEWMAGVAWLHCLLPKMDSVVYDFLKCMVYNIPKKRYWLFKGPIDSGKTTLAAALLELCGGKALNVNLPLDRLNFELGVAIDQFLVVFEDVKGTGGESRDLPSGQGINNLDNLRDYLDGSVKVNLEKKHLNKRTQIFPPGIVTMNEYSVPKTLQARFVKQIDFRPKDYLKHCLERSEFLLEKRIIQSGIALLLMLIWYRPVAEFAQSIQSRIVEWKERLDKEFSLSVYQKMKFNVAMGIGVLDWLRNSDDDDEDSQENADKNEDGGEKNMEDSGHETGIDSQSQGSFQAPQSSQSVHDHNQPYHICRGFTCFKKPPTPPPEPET
Bifunctional protein GlmU, sequence (P9WMN3 whole entry): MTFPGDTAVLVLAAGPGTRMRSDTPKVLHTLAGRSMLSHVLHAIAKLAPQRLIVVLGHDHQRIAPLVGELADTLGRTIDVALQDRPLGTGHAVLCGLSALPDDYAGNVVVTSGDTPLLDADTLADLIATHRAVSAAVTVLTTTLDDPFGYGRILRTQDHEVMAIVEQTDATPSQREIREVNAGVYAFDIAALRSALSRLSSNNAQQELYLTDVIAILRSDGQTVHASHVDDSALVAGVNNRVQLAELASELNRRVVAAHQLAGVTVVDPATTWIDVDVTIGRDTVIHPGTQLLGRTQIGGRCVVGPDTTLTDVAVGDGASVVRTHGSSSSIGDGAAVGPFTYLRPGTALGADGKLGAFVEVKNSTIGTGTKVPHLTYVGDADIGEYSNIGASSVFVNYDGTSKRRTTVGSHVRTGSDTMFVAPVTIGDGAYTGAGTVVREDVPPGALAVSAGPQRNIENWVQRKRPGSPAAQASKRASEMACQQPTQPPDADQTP
Peroxisome proliferator-activated receptor gamma/Nuclear receptor coactivator 2, sequence (P37231 whole entry): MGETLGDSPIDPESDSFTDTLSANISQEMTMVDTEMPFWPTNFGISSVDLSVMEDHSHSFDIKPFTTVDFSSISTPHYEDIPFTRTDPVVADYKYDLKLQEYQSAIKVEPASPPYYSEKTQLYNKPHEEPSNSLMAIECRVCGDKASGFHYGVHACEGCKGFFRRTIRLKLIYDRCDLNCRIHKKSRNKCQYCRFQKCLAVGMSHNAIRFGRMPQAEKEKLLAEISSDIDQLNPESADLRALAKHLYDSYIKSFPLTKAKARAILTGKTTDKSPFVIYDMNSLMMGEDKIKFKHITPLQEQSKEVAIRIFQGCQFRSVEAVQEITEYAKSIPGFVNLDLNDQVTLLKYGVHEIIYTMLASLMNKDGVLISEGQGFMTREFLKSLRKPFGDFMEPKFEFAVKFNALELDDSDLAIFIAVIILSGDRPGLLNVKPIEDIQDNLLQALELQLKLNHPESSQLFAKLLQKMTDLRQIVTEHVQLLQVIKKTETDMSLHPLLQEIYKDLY
Peroxisome proliferator-activated receptor gamma/Nuclear receptor coactivator 2, sequence (Q15596 whole entry, further chain): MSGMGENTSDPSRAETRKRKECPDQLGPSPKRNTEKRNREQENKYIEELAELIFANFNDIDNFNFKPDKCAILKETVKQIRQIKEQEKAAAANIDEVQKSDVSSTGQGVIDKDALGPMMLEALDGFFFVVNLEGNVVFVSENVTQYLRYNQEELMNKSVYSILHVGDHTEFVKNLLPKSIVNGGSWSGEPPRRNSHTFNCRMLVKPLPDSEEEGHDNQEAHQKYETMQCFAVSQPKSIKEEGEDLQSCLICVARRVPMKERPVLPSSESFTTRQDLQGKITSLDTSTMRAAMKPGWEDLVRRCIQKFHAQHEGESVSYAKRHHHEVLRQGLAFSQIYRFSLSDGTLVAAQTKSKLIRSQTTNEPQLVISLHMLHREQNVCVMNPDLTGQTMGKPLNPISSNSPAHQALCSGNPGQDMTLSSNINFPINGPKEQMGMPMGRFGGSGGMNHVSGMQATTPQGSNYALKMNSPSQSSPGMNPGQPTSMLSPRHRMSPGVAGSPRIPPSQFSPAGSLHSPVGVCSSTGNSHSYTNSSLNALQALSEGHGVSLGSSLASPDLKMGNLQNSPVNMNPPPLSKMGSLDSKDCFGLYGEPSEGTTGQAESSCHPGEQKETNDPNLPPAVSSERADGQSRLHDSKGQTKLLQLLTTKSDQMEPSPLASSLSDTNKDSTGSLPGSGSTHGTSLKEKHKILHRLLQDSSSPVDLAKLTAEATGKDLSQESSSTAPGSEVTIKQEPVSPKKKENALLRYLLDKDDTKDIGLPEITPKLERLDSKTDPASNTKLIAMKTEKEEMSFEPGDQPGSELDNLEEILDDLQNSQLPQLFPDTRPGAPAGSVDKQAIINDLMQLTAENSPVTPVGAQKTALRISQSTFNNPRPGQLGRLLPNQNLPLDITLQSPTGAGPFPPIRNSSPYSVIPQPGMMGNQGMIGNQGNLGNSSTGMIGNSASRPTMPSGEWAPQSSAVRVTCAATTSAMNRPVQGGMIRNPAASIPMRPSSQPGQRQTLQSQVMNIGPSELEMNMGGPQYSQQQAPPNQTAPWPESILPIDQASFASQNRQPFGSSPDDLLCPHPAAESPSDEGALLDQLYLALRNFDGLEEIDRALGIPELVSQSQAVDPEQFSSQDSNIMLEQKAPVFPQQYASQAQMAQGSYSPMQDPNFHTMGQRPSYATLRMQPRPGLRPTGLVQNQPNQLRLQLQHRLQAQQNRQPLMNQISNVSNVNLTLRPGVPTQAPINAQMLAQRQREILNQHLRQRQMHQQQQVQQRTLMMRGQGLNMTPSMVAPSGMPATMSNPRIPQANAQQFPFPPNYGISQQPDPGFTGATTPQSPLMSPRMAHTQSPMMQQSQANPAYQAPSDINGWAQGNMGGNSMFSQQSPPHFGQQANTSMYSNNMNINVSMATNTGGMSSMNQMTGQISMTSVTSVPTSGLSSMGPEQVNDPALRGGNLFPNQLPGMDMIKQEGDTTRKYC

CCOc1ccc(-n2c(N)c(C(=O)N3CCN(C)CC3)sc2=S)cc1
IC50 [1]: > 100 µM (inactive)
IC50 [2]: > 99 µM (inactive)
IC50 [3]: > 100 µM (inactive)
IC50 [4]: > 100 µM (inactive)
IC50 [5]: > 100 µM (inactive)
IC50 [6]: > 100 µM (inactive)
IC50 [7]: > 99 µM (inactive)

O=C(Nc1ccccc1)C1CCN(C(=O)c2cccs2)CC1
IC50 [8]: 21.4 µM (active)
IC50 [9]: 7.49 µM (active)

CC(=O)Oc1c(/C=C(\C#N)C(N)=O)[nH]c2ccccc12
EC50 [10]: 20.5 µM (inactive)
EC50 [11]: > 79.4 µM (not active)
IC50 (Large T antigen): 22.8 µM (active)
EC50 [12]: 22.6 µM (not active)
IC50 [13]: > 300 µM (active)
AC50 [14]: > 380 µM (inconclusive)
EC50 [15]: > 99 µM (inactive)
CC50 (Vero): > 40 µM (active)
EC50 (Protein RecA): 0.0314 µM (active)
EC50 [16]: > 99 µM (inactive)

CC1=CC(=O)C=C(C)C1=NOS(=O)(=O)c1ccccc1
EC50 (BJ [17]): 4.5 µM (active)
EC50 (BJ [18]): 4.78 µM (active)
IC50 [19]: 14.4 µM (active)
IC50 [20]: 165 µM (active)
IC50 (J774.A1): 0.47 µM (active)
EC50 (BJ [21]): 5.67 µM (inconclusive)
EC50 [22]: 7.26 µM (active)
IC50 [23]: 47.3 µM (active)
Absolute IC50 (XBP1) (X-box-binding protein 1): 10 µM
AC50 [24]: 0.928 µM (active)
EC50 (BJ [25]): 1.35 µM (inconclusive)
IC50 [26]: 5.52 µM (active)
